Measurements reported in patent US6596754B1, “Preventives/remedies for multiple organ failure” (Daiichi Pharmaceuticals Co., Ltd., priority 1998, dated 2003).

What was measured:
Format in all cases: in vivo, Rats (Slc: Wistar)
[1] = test system: LPS intravenous administration shock model; experiment: LPS intravenous administration shock model, mortality; conditions: for Mortality in terms of percentage(%) / Mortality: rats, LPS 20 mg/kg i.v., 24 hours after LPS; for Mortality in terms of percentage(%): control 100%; for Mortality: dead/total
Description: Rats (Slc: Wistar, male, 10 weeks old, n=15) were anesthetized by halothane. Subsequently, lipopolysaccharide (LPS) (E. coli, 055: B5) (20 mg/2 ml/kg) was administered to each rat through the femoral vein. Immediately after administration, (2S)-2-[4-([(3S)-1-acetimidoyl-3-pyrrolidinyl]oxy)phenyl]-3-(7-amidino-2-naphthyl)propionic acid hydrochloride pentahydrate (hereinafter referred to as “Compound A”) was subcutaneously administered to each rat at a dose of 0.3, 1, or 3 mg/kg. The mortality for the rats was observed 24 hours after the administration of LPS.

[2] = test system: liver function parameters (GOT, GPT, LDH, and T-BIL); experiment: Liver disease: liver function parameters (GOT, GPT, LDH, T-BIL) after LPS administration; conditions: six hours after LPS; for TBIL / GOT / GPT / LDH: rats, LPS 20 mg/kg i.v., Mean ± S.E. (n = 7); for TBIL: control 0.46 ± 0.15; for GOT: control 3404 ± 406; for GPT: control 3716 ± 496; for LDH: control 23847 ± 3225
Description: Rats (Slc: Wistar, male, 10 weeks old, n=7) were anesthetized by halothane. Subsequently, LPS (E. coli, 055: B5) (20 mg/2 ml/kg) was administered to each rat through the femoral vein. Immediately after administration, compound A was subcutaneously administered to each rat at a dose of 0.3, 1, or 3 mg/kg. Six hours after LPS administration, blood was collected from the abdominal aorta in the presence of citric acid, and the blood was collected to measurement of liver function parameters (GOT, GPT, LDH, and T-BIL).

IL-6 = experiment: Hypercytokinemia: plasma IL-6 by ELISA after LPS administration; conditions: rats, LPS 20 mg/kg i.v.; 1 or 3 mg/kg s.c.; six hours after LPS; FIG. 1; #p <0.1
Description: Rats (Slc: Wistar, male, 10 weeks old, n=7) were anesthetized by halothane. Subsequently, LPS (E. coli, 055: B5) (20 mg/2 ml/kg) was administered to each rat through the femoral vein. Immediately after administration, compound A was subcutaneously administered to each rats at a dose of 1 or 3 mg/kg. Six hours after administration of LPS, blood was collected from the abdominal aorta in the presence of citric acid, and plasma IL-6 was measured by ELISA.

CC(=N)N1CC[C@H](Oc2ccc([C@H](Cc3ccc4ccc(C(=N)N)cc4c3)C(=O)O)cc2)C1.Cl.O.O.O.O.O [Compound A, (2S)-2-[4-([(3S)-1-acetimidoyl-3-pyrrolidinyl]oxy)phenyl]-3-(7-amidino-2-naphthyl)propionic acid hydrochloride pentahydrate]
Effect on mortality for rats (in words) ([1]; 0.3, 1, 3 mg/kg s.c., χ2 test p<0.001): dose-dependently decreases the mortality for rats | Mortality in terms of percentage(%) ([1]; 0.3 mg/kg s.c.): 80% | Mortality ([1]; 0.3 mg/kg s.c.): 12/15 | Mortality in terms of percentage(%) ([1]; 1 mg/kg s.c.): 40% | Mortality ([1]; 1 mg/kg s.c.): 6/15 | Mortality in terms of percentage(%) ([1]; 3 mg/kg s.c.): 7% | Mortality ([1]; 3 mg/kg s.c.): 1/15 | Effect on liver function parameters (in words) ([2]; 0.3, 1, 3 mg/kg s.c.): dose-dependently suppressed the increase in each liver function parameter | TBIL ([2]; 0.3 mg/kg s.c.): 0.48 ± 0.22 mg/dL | GOT ([2]; 0.3 mg/kg s.c.): 1939 ± 442 IU/L | GPT ([2]; 0.3 mg/kg s.c.): 1986 ± 467 IU/L | LDH ([2]; 0.3 mg/kg s.c.): 11560 ± 2983 IU/L | TBIL ([2]; 1 mg/kg s.c.): 0.20 ± 0.10 mg/dL | GOT ([2]; 1 mg/kg s.c.): 1183 ± 281 IU/L | GPT ([2]; 1 mg/kg s.c.): 1216 ± 352 IU/L | LDH ([2]; 1 mg/kg s.c.): 6297 ± 2291 IU/L | TBIL ([2]; 3 mg/kg s.c.): 0.10 ± 0.01 mg/dL | GOT ([2]; 3 mg/kg s.c.): 364 ± 42 IU/L | GPT ([2]; 3 mg/kg s.c.): 189 ± 22 IU/L | LDH ([2]; 3 mg/kg s.c.): 972 ± 186 IU/L | Concentration of plasma IL-6 (in words) (IL-6): dose-dependently suppressed the increase in concentration of IL-6
